Our source for the IC50 values is US20070021419A1, “2-Aminophenyl-4-phenylpyrimidines as kinase inhibitors” (Cyclacel Limited, priority 2003, published 2007).

Experiment [1] has as its target CDK2/cyclin E (Homo sapiens, UniProt P24941). Briefly: Kinase assay, radioactive phosphate incorporation, CDK2/cyclin E. It counts as biochemical. The settings on record: 100 μM ATP, 30° C.; read-out: Kinase inhibition IC50 CDK2/cyclin E. The protocol:
(§1) The compounds from the examples above were investigated for their ability to inhibit the enzymatic activity of various protein kinases. This was achieved by measurement of incorporation of radioactive phosphate from ATP into appropriate polypeptide substrates. Recombinant protein kinases and kinase complexes were produced or obtained commercially. Assays were performed using 96-well plates and appropriate assay buffers (typically 25 mM β-glycerophosphate, 20 mM MOPS, 5 MM EGTA, 1 mM DTT, 1 mM Na3VO3, pH 7.4), into which were added 2-4 μg of active enzyme with appropriate substrates. The reactions were initiated by addition of Mg/ATP mix (15 mM MgCl2+100 μM ATP with 30-50 kBq per well of [γ-^32P]-ATP) and mixtures incubated as required at 30° C. Reactions were stopped on ice, followed by filtration through p81 filterplates or GF/C filterplates (Whatman Polyfiltronics, Kent, UK). After washing 3 times with 75 mM aq orthophosphoric acid, plates were dried, scintillant added and incorporated radioactivity measured in a scintillation counter (TopCount, Packard Instruments, Pangbourne, Berks, UK). Compounds for kinase assay were made up as 10 mM stocks in DMSO and diluted into 10% DMSO in assay buffer.

Experiment [2] has as its target CDK1/cyclin B (Homo sapiens, UniProt P06493). The experiment is described as follows: Kinase assay, radioactive phosphate incorporation, CDK1/cyclin B. It counts as biochemical. As to conditions: 100 μM ATP, 30° C.; read-out: Kinase inhibition IC50 CDK1/cyclin B. How it is done:
as §1

Experiment [3] concerns the target CDK2/cyclin A (Homo sapiens, UniProt P24941). The experiment is described as follows: Kinase assay, radioactive phosphate incorporation, CDK2/cyclin A. It counts as biochemical. The settings on record: 100 μM ATP, 30° C.; read-out: Kinase inhibition IC50 CDK2/cyclin A. The protocol:
as §1

The subject of experiment [4] is transformed human cell lines (A549, HT29, Saos-2). The experiment is described as follows: 72-h MTT cytotoxicity assay, average of cell lines. It counts as cell-based. The settings on record: read-out: 72-h MTT IC50 Average, average of A549, HT29, Saos-2. The protocol: (§2) The compounds from the examples above were subjected to a standard cellular proliferation assay using human tumour cell lines obtained from the ATCC (American Type Culture Collection, 10801 University Boulevard, Manessas, Va. 20110-2209, USA). Standard 72-h MTT (thiazolyl blue; 3-[4,5-dimethylthiazol-2-yl]-2,5-diphenyltetrazolium bromide) assays were performed. In short: cells were seeded into 96-well plates according to doubling time and incubated overnight at 37° C. Test compounds were made up in DMSO and a 1/3 dilution series prepared in 100 μL cell media, added to cells (in triplicates) and incubated for 72 ho at 37° C. MTT was made up as a stock of 5 mg/mL in cell media and filter-sterilised. Media was removed from cells followed by a wash with 200 μL PBS. MTT solution was then added at 20 μL per well and incubated in the dark at 37° C. for 4 h. MTT solution was removed and cells again washed with 200 μL PBS. MTT dye was solubilised with 200 μL per well of DMSO with agitation.
For orientation: Formazan colour is commonly taken as a measure of viable cells.

Experiment [5] relates to Saos-2. The experiment is described as follows: 72-h MTT cytotoxicity assay, Saos-2. It is filed as cell-based. As to conditions: Homo sapiens, read-out: 72-h MTT IC50 Saos-2, Saos-2 cell line. The protocol:
as §2

Experiment [6] concerns A549. Briefly: 72-h MTT cytotoxicity assay, A549. It is filed as cell-based. As to conditions: Homo sapiens, read-out: 72-h MTT IC50 A549, A549 cell line. How it is done: as §2
Experiment [7] has as its target GSK3β (Homo sapiens, UniProt P49841). The experiment is described as follows: Kinase assay, radioactive phosphate incorporation, GSK3β. It counts as biochemical. As to conditions: 100 μM ATP, 30° C.; read-out: Kinase inhibition IC50 GSK3β. How it is done: as §1
The target in experiment [8] is CDK4/cyclin D1 (Homo sapiens, UniProt P11802). Briefly: Kinase assay, radioactive phosphate incorporation, CDK4/cyclin D1. As to conditions: 100 μM ATP, 30° C.; read-out: Kinase inhibition IC50 CDK4/cyclin D1. It is filed as biochemical. The protocol: as §1
Sequence of CDK4/cyclin D1 (P11802 whole entry, species assumed): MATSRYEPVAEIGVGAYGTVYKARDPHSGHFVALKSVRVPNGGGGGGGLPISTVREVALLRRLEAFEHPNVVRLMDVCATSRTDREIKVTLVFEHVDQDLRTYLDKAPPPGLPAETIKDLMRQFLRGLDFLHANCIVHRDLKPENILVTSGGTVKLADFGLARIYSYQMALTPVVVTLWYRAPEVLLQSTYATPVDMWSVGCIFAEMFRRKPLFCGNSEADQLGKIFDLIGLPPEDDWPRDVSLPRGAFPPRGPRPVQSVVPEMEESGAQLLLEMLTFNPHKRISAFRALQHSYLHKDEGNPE
Sequence of CDK4/cyclin D1 (P24385 whole entry partner, species assumed): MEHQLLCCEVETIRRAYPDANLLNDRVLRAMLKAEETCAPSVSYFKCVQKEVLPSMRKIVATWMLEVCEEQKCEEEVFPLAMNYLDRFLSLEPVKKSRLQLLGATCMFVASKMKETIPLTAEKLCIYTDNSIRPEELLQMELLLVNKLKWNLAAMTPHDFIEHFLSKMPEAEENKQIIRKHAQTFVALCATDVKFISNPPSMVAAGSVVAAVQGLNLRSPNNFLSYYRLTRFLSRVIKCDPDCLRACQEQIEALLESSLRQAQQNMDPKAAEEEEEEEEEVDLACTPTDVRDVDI
In experiment [9] the test system is HT29. The experiment is described as follows: 72-h MTT cytotoxicity assay, HT29. It is filed as cell-based. The settings on record: Homo sapiens, HT-29, read-out: 72-h MTT IC50 HT29, HT29 cell line. How it is done: as §2
The target in experiment [10] is CDK9/cyclin T1 (Homo sapiens, UniProt P50750). Briefly: Kinase assay, radioactive phosphate incorporation, CDK9/cyclin T1. It counts as biochemical. The settings on record: 100 μM ATP, 30° C.; read-out: Kinase inhibition IC50 CDK9/cyclin T1. How it is done: as §1
Sequence of CDK9/cyclin T1 (P50750 whole entry, species assumed): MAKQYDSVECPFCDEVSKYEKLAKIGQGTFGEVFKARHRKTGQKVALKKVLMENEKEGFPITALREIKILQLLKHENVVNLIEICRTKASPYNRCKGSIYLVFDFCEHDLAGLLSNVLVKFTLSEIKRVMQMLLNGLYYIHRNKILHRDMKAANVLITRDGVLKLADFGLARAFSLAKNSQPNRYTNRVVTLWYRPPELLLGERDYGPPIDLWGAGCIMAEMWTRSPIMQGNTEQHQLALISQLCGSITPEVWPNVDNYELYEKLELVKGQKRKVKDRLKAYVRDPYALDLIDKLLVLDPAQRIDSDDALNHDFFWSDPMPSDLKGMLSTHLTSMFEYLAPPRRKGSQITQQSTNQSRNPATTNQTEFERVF
Sequence of CDK9/cyclin T1 (O60563 whole entry partner, species assumed): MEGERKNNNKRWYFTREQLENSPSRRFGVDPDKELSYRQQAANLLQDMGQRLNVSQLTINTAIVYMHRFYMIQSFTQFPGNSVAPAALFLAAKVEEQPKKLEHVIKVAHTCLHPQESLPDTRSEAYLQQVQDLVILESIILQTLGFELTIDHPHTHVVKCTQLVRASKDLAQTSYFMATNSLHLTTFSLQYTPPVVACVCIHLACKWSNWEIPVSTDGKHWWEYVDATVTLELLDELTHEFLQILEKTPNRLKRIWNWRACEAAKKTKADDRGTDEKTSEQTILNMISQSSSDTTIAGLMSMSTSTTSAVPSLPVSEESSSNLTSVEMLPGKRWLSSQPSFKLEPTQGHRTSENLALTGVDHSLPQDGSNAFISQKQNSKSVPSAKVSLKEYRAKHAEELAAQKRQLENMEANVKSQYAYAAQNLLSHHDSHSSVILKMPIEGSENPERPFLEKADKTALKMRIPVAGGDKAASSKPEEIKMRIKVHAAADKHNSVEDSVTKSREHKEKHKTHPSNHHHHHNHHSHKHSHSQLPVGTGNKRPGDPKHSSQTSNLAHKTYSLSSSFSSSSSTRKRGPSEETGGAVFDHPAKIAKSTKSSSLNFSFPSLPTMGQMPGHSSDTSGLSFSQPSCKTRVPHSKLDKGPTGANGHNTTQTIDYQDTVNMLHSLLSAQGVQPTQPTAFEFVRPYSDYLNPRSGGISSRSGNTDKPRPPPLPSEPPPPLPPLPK
Experiment [11] deals with CDK7/cyclin H (Homo sapiens, UniProt P50613). The experiment is described as follows: Kinase assay, radioactive phosphate incorporation, CDK7/cyclin H. As to conditions: 100 μM ATP, 30° C.; read-out: Kinase inhibition IC50 CDK7/cyclin H. It counts as biochemical. The protocol:
as §1

Sequence of CDK7/cyclin H (P50613 whole entry, species assumed): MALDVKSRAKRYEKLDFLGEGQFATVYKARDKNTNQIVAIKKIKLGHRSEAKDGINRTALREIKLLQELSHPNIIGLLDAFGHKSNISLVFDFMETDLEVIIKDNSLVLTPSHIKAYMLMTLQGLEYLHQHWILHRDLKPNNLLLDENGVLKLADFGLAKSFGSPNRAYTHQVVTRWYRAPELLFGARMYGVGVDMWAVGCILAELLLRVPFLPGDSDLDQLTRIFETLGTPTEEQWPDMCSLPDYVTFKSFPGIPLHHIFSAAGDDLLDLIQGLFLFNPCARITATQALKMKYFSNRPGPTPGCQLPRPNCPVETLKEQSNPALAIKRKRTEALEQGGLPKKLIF
Sequence of CDK7/cyclin H (P51946 whole entry partner, species assumed): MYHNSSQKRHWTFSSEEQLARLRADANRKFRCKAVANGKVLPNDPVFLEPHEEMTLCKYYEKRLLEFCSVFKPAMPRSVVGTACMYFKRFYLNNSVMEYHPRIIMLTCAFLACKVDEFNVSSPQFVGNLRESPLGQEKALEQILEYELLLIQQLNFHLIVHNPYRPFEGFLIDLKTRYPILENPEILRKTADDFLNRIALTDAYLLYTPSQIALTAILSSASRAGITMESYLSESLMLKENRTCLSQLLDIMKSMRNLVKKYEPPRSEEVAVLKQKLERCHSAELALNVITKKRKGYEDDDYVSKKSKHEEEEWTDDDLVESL
Sequence of CDK1/cyclin B (P06493 whole entry, species assumed): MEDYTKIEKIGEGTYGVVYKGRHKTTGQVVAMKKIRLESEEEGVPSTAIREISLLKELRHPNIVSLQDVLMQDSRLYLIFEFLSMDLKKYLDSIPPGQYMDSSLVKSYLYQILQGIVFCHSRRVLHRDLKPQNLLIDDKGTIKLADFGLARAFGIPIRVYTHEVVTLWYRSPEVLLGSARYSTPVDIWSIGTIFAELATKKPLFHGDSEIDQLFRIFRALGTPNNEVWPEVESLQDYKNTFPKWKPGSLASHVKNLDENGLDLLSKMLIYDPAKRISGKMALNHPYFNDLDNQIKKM
Sequence of CDK1/cyclin B (P14635 whole entry partner, species assumed): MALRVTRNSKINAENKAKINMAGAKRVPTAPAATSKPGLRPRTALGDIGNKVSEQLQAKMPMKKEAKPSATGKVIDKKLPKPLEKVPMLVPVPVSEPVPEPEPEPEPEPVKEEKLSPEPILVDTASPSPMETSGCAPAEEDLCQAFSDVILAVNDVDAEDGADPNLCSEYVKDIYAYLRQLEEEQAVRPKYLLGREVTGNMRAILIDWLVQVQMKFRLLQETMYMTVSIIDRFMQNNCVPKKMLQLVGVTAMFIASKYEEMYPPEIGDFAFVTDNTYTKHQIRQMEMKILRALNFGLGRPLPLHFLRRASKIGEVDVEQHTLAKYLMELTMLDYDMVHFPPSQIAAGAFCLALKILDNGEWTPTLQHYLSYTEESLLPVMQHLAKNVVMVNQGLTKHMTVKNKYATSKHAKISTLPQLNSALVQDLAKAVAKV
Sequence of GSK3β (P49841 whole entry, species assumed): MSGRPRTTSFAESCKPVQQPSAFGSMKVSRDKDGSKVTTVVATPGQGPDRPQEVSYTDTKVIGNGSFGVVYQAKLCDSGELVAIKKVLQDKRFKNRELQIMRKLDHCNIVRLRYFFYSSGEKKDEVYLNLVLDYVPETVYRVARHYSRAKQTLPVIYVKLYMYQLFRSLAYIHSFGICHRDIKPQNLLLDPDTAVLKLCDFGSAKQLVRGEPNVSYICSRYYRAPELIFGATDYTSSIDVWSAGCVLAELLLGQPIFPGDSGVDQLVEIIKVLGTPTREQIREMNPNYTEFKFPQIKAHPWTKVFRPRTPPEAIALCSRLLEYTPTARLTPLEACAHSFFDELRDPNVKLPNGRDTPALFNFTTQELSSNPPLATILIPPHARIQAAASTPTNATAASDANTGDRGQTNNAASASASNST

For the compound `Oc1ccc(Nc2nccc(-c3cccc(Cl)c3)n2)cc1` [Compound 17, 4-[4-(3-Chloro-phenyl)-pyrimidin-2-ylamino]-phenol], the IC50 in experiment [1] stood at 0.39 µM; in experiment [2], 5.3 µM; in experiment [3] it was 2.1 µM.
Taken in the same sequence, the figures for `Oc1cccc(Nc2nccc(-c3cccc(Cl)c3)n2)c1` [Compound 18, 3-[4-(3-Chloro-phenyl)-pyrimidin-2-ylamino]-phenol] were 1.1 µM, 5.5 µM and 3.1 µM.
As for `CN(C)c1ccc(Nc2nccc(-c3ccc(Cl)c(Cl)c3)n2)cc1` [Compound 20, N-[4-(3,4-Dichloro-phenyl)-pyrimidin-2-yl]-N′,N′-dimethyl-benzene-1,4-diamine], the IC50 stood at 6.1 µM in experiment [1]; 32 ± 6.3 µM in experiment [4]; 3.9 µM in experiment [2]; 24.7 µM in experiment [5]; 35.5 µM in experiment [6]; 1.1 µM in experiment [7]. Further, the IC50 in [8] was 20 µM; in experiment [9], 35.8 µM.
Regarding `Oc1ccc(Nc2nccc(-c3ccc(Cl)c(Cl)c3)n2)cc1` [Compound 21, 4-[4-(3,4-Dichloro-phenyl)-pyrimidin-2-ylamino]-phenol], the IC50 is 5.4 µM in experiment [10]; 3.5 µM in [1]; 22.8 ± 16.3 µM in experiment [4]; 29 µM in experiment [2]; 41.5 µM in experiment [5]; 11.7 µM in experiment [6]. Further, the IC50 was determined as 29 µM in experiment [8] and 15.1 µM in experiment [9].
As for `CCNc1cccc(-c2ccnc(Nc3ccc([N+](=O)[O-])cc3)n2)c1` [Compound 26, [4-(3-Ethylamino-phenyl)-pyrimidin-2-yl]-(4-nitro-phenyl)-amine], the IC50 was 0.059 µM in experiment [10]; 0.033 µM in experiment [1]; 1.3 ± 0.3 µM in [4]; 1.3 µM in [2]; 1.1 µM in experiment [5]; 0.13 µM in experiment [3]. Moreover, the IC50 stood at 1.7 µM in [6], 0.04 µM in experiment [7], 20 µM in experiment [11] and 1.2 µM in experiment [9].
For the compound `O=[N+]([O-])c1cccc(Nc2nccc(-c3cccc(CNCc4ccccc4)c3)n2)c1` [Compound 27, {4-[3-(Benzylamino-methyl)-phenyl]-pyrimidin-2-yl}-(3-nitro-phenyl)-amine], the IC50 in [10] is 2 µM; in [1] it was 0.57 µM; in experiment [4] it was 20.9 ± 20.3 µM; in experiment [5] it was 43.8 µM; in experiment [3], 6.5 µM; in [6] it was 14.1 µM. Further, the IC50 in experiment [7] amounted to 0.18 µM; in [8] it was 16 µM; in experiment [11], 6 µM; in experiment [9], 4.9 µM.
Turning to `Oc1ccc(Nc2nccc(-c3cccc(Cn4cncn4)c3)n2)cc1` [Compound 33, 4-[4-(3-[1,2,4]triazol-1-ylmethyl-phenyl)-pyrimidin-2-ylamino]-phenol], the IC50 in experiment [10] is 0.092 µM; in experiment [1], 0.14 µM; in experiment [4], 12.8 ± 7 µM; in experiment [5], 7.4 µM; in experiment [3], 2 µM; in [6], 10.3 µM. The IC50 in [7] is 0.12 µM; in [8], 9.1 µM; in experiment [11], 1.1 µM; in experiment [9] it was 20.7 µM.
Regarding `COc1cccc(Nc2nccc(-c3cccc(Cn4cncn4)c3)n2)c1` [Compound 35, (3-Methoxy-phenyl)-[4-(3-[1,2,4]triazol-1-ylmethyl-phenyl)-pyrimidin-2-yl]-amine], the IC50 in experiment [10] is 0.069 µM; in experiment [1], 0.92 µM; in experiment [4], 15.3 ± 7.7 µM; in [5], 23.2 µM; in experiment [3], 3.2 µM; in experiment [6] it was 15 µM. Besides, the IC50 in experiment [7] was 0.1 µM; in [8], 0.57 µM; in experiment [11] it was 0.58 µM; in experiment [9] it was 7.7 µM.
Take `N#Cc1cccc(Nc2nccc(-c3cccc(Cn4cncn4)c3)n2)c1` [Compound 36, 3-[4-(3-[1,2,4]triazol-1-ylmethyl-phenyl)-pyrimidin-2-ylamino]-benzonitrile]: the IC50 in experiment [10] turned out to be 0.009 µM; in experiment [1] it was 0.079 µM; in experiment [3], 3.9 µM; in experiment [7], 0.032 µM; in [8] it was 4.7 µM; in experiment [11], 0.32 µM.
Turning to `CS(=O)(=O)NCc1cccc(-c2ccnc(Nc3cccc([N+](=O)[O-])c3)n2)c1` [Compound 40, N-{3-[2-(3-Nitro-phenylamino)-pyrimidin-4-yl]-benzyl}-methanesulfonamide], the IC50 in experiment [10] stood at 1.6 µM; in experiment [1] it was 0.42 µM; in experiment [4], 2.4 ± 1.7 µM; in experiment [2], 0.27 µM; in experiment [5], 4.3 µM; in [6] it was 1.6 µM. The IC50 in experiment [7] came to 0.005 µM; in experiment [11], 0.88 µM; in experiment [9] it was 1.2 µM.
As to `COc1ccc(Nc2nccc(-c3cccc(Cn4cncn4)c3)n2)cc1` [Compound 42, (4-Methoxy-phenyl)-[4-(3-[1,2,4]triazol-1-ylmethyl-phenyl)-pyrimidin-2-yl]-amine], the IC50 in experiment [10] was 0.22 µM; in experiment [1], 3.2 µM; in [4], 14.4 ± 10.1 µM; in experiment [2], 11 µM; in [5] it was 25.8 µM; in experiment [6] it was 10.6 µM. Further, the IC50 stood at 0.087 µM in experiment [7], 2 µM in [8], 1.1 µM in [11] and 6.7 µM in experiment [9].
On to `Clc1ccc(Nc2nccc(-c3cccc(CNCc4ccccc4)c3)n2)cn1` [Compound 48, {4-[3-(Benzylamino-methyl)-phenyl]-pyrimidin-2-yl}-(6-chloro-pyridin-3-yl)-amine], for which the IC50 in [10] worked out at 1.2 µM; in [1], 1.3 µM; in experiment [4] it was 13 ± 7.7 µM; in [5], 20.4 µM; in experiment [3] it was 9.8 µM; in [6], 13.4 µM. Further, the IC50 turned out to be 0.32 µM in [7], 3.5 µM in experiment [8], 1.7 µM in experiment [11] and 5.1 µM in [9].
On to `COc1ccc(Nc2nccc(-c3cccc(CN4CCN(C)CC4)c3)n2)cn1` [Compound 58, (6-Methoxy-pyridin-3-yl)-{4-[3-(4-methyl-piperazin-1-ylmethyl)-phenyl]-pyrimidin-2-yl}-amine], for which the IC50 in [10] worked out at 0.19 µM; in experiment [4], 7.4 ± 2 µM; in experiment [5] it was 9.6 µM; in experiment [3], 10 µM; in [6], 7 µM; in experiment [8] it was 11 µM. Moreover, the IC50 worked out at 36 µM in [11] and 5.7 µM in [9].
For `COc1ccc(-c2ccnc(Nc3ccc(OC)nc3)n2)cc1` [Compound 124, [4-(4-Methoxy-phenyl)-pyrimidin-2-yl]-(6-methoxy-pyridin-3-yl)-amine], the IC50 was 0.02 µM in experiment [10], 1.1 µM in experiment [3], 0.09 µM in [7] and 1.5 µM in experiment [8].
